We go through eleven compounds from patent US20080227823A1, “AMIDE DERIVATIVES AS CALCIUM CHANNEL BLOCKERS” (priority 2007, published 2008).

What all share (experiment): T-type calcium channel block, whole cell patch clamp in HEK cells
What all share (type): cell-based
Common to all, as to settings: mainly non-inactivated protocol
On the technique in general: The patch-clamp technique gives a direct electrical read-out from membranes.

In assay [1] the target is T1, human α1G T-type channels (Homo sapiens, UniProt O43497).
T1 construct: expressed in transfected cells; host or cells: HEK 293
How it is done: (§1) T-type calcium channel blocking activity was assayed in human embryonic kidney cells, HEK 293, stably transfected with the T-type calcium channel subunits. Briefly, cells were cultured in Dulbecco's modified eagle medium (DMEM) supplemented with 10% fetal bovine serum, 200 U/ml penicillin and 0.2 mg/ml streptomycin at 37° C. with 5% CO2. At 85% confluency cells were split with 0.25% trypsin/1 mM EDTA and plated at 10% confluency on glass coverslips. At 12 hours the medium was replaced and the cells stably transfected using a standard calcium phosphate protocol and the appropriate calcium channel cDNA's. Fresh DMEM was supplied and the cells transferred to 28° C./5% CO2. Cells were incubated for 1 to 2 days prior to whole cell recording.
(§2) Standard patch-clamp techniques were employed to identify blockers of T-type currents. Briefly, previously described HEK cell lines stably expressing human α1G, α1H and α1I T-type channels were used for all the recordings (passage #: 4-20, 37° C., 5% CO2). Whole cell patch clamp experiments were performed using an Axopatch 200B amplifier (Axon Instruments, Burlingame, Calif.) linked to a personal computer equipped with pCLAMP software. Data were analyzed using Clampfit (Axon Instruments) and SigmaPlot 4.0 (Jandel Scientific). To obtain T-type currents, plastic dishes containing semi-confluent cells were positioned on the stage of a ZEISS AXIOVERT S100 microscope after replacing the culture medium with external solution (see below). Whole-cell patches were obtained using pipettes (borosilicate glass with filament, O.D.: 1.5 mm, I.D.: 0.86 mm, 10 cm length), fabricated on a SUTTER P-97 puller with resistance values of ˜5 MΩ (see below for internal solution).
(§3) T-type currents were reliably obtained by using two voltage protocols: • (1) “non-inactivating”, and • (2) “inactivation”
(§4) In the non-inactivating protocol, the holding potential is set at −110 mV and with a pre-pulse at −100 mV for 1 second prior to the test pulse at −40 mV for 50 ms. In the inactivation protocol, the pre-pulse is at approximately −85 mV for 1 second, which inactivates about 15% of the T-type channels.
(§5) Test compounds were dissolved in external solution, 0.1-0.01% DMSO. After 10 min rest, they were applied by gravity close to the cell using a WPI microfil tubing. The “non-inactivated” pre-pulse was used to examine the resting block of a compound. The “inactivated” protocol was employed to study voltage-dependent block. However, the initial data shown below were mainly obtained using the non-inactivated protocol only. Kd values are shown for various compounds of the invention in Table 4 measured at 1 μM for the drug of interest except for compound 18 which was measured at 200 nM.

Assay [2] concerns the target T2, human α1I T-type channels (Homo sapiens, UniProt Q9P0X4).
T2 construct: expressed in transfected cells; host or cells: HEK 293
The method, then:
as §1, §2, §3, §4, §5

For assay [3], the target named is T3, human α1H T-type channels (Homo sapiens, UniProt O95180).
T3 construct: expressed in transfected cells; host or cells: HEK 293
The method, then: as §1, §2, §3, §4, §5

As usually defined, the Kd is the constant that tells how readily two partners part at equilibrium.

T2 sequence (Q9P0X4 whole entry): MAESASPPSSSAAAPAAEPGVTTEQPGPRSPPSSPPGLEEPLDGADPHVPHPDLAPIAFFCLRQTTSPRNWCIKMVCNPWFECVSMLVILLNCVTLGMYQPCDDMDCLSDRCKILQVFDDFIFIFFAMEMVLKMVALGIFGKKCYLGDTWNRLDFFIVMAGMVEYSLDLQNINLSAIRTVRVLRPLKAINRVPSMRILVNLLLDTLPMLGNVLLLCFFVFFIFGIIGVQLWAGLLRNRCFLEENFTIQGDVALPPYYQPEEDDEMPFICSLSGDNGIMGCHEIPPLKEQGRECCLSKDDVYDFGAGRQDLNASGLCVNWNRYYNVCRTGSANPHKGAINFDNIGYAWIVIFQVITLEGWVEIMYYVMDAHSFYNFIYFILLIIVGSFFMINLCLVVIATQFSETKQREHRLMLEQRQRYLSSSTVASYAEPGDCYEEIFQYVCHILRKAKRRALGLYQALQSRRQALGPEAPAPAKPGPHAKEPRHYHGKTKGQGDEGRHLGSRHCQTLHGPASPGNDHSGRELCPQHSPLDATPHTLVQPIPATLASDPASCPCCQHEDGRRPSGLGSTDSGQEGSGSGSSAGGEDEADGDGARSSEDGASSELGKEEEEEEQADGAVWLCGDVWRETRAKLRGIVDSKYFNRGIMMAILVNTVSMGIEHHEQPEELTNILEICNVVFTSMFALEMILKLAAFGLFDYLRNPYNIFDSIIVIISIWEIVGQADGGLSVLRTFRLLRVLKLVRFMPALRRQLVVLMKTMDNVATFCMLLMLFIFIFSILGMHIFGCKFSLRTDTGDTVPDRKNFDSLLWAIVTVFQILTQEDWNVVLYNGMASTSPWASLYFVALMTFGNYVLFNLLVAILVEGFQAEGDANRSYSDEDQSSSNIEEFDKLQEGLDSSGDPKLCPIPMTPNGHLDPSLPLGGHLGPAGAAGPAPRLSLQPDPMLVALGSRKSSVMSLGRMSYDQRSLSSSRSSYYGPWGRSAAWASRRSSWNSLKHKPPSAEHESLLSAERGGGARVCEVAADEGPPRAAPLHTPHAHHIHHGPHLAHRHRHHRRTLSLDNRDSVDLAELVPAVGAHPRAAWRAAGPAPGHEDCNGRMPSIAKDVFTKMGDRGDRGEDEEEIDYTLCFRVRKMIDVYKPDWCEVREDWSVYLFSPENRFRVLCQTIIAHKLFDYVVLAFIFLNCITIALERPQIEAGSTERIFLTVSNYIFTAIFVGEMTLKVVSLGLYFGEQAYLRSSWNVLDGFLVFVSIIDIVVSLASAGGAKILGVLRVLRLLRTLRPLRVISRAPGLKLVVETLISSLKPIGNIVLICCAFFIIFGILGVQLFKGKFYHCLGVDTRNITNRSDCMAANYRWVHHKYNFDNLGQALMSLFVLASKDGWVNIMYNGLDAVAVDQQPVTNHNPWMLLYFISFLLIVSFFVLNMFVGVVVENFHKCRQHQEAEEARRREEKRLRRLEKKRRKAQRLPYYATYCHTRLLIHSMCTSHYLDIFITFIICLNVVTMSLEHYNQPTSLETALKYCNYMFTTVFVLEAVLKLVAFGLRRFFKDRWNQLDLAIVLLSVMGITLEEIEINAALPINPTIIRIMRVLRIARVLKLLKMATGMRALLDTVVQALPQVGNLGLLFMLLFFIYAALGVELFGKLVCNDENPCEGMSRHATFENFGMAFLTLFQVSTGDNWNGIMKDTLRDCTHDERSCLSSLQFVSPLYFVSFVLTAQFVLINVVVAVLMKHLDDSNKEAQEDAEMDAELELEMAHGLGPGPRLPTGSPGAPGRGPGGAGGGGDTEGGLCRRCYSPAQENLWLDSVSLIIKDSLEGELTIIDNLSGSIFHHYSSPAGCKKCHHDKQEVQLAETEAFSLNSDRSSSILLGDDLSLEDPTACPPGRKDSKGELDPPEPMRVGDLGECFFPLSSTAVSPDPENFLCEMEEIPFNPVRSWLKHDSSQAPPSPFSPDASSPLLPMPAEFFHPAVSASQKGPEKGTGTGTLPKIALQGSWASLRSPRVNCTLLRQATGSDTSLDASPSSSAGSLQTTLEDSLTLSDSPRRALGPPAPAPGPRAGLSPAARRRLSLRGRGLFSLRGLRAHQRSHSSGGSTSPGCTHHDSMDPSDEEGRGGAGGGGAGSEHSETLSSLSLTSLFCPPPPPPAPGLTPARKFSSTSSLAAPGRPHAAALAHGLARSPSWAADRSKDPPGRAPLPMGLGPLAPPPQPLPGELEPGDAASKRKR
T3 sequence (O95180 whole entry): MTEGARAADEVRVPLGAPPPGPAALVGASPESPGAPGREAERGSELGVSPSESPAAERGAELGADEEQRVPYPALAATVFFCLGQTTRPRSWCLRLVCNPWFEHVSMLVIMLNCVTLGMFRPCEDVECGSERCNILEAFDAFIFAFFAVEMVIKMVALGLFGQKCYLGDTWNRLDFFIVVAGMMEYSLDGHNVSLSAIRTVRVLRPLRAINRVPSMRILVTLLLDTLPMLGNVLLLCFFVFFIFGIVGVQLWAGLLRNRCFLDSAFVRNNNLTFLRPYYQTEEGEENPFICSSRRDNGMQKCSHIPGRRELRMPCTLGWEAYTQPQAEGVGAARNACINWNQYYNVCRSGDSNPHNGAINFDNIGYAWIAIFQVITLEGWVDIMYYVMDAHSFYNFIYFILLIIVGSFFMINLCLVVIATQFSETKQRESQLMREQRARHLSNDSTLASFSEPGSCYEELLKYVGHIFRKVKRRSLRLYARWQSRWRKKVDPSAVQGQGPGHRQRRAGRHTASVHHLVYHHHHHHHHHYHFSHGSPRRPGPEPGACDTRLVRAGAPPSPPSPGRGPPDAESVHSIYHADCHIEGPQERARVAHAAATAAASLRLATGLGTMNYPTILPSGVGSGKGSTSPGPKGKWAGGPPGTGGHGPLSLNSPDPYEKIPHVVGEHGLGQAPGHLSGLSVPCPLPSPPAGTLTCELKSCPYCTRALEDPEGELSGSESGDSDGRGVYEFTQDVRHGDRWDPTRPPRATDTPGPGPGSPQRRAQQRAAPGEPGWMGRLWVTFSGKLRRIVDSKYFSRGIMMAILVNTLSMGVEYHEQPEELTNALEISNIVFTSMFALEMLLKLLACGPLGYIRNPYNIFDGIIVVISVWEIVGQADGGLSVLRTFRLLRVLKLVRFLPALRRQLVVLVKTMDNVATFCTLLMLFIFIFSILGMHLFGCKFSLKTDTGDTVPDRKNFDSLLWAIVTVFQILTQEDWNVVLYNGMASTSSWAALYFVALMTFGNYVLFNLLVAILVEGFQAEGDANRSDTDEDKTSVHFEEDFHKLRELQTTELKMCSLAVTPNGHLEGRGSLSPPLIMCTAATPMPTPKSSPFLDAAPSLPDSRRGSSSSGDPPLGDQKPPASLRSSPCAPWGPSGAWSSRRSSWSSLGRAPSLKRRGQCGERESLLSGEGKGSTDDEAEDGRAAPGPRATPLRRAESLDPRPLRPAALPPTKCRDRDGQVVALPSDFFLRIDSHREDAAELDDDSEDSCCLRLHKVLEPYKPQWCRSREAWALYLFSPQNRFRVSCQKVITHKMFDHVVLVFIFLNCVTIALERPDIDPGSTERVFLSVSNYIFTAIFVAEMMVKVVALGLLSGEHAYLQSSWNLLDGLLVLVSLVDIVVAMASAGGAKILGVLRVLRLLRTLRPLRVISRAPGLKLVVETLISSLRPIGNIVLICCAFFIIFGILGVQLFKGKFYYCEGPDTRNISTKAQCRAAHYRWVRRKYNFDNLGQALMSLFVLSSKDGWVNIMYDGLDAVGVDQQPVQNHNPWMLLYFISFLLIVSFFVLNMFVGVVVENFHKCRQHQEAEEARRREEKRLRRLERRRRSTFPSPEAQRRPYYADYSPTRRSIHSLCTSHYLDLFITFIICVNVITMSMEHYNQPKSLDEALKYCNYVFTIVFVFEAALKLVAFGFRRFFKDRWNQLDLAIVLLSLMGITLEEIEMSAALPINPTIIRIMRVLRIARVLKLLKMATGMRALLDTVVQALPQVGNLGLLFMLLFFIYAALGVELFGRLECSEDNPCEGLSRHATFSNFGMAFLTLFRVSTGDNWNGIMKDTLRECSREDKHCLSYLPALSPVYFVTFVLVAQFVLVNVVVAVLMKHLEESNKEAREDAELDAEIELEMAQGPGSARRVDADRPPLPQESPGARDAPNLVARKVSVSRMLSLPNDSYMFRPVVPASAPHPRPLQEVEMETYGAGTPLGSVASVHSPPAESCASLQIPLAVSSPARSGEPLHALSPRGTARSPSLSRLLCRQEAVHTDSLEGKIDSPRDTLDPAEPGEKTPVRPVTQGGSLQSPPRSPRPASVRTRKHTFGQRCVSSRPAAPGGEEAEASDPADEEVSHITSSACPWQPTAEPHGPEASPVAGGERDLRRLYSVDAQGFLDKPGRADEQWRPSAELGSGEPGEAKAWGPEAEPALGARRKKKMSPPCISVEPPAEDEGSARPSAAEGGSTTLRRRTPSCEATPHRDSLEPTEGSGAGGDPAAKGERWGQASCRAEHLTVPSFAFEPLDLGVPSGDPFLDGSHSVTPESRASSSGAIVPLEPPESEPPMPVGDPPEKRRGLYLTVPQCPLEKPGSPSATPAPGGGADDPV

For the compound `O=C(/C=C/c1ccc(F)c(Br)c1)NC1(C(=O)NCCc2c[nH]c3ccc(F)cc23)CCNCC1` [Compound 1], the figures for the Kd in assay [1] (measured at 1 μM drug), in assay [2] (measured at 1 μM drug) and in assay [3] (measured at 1 μM drug) were 220 nM, 180 nM and 470 nM, respectively.

In the case of `O=C(/C=C/c1ccc(F)c(Br)c1)NC1(C(=O)NCCc2c[nH]c3ccccc23)CCNCC1` [Compound 2, (E)-N-(2-(1H-indol-3-yl)ethyl)-4-(3-(3-bromo-4-fluorophenyl)acrylamido)piperidine-4-carboxamide], the Kd amounted to 30 nM in assay [1] (measured at 1 μM drug), 30 nM in assay [2] (measured at 1 μM drug) and 410 nM in assay [3] (measured at 1 μM drug).

Turning to `O=C(/C=C/c1ccc(F)c(F)c1)NC1(C(=O)NCCc2c[nH]c3ccc(F)cc23)CCNCC1` [Compound 7, (E)-4-(3-(3,4-difluorophenyl)acrylamido)-N-(2-(5-fluoro-1H-indol-3-yl)ethyl)piperidine-4-carboxamide], the figures for the Kd in assay [1] (measured at 1 μM drug), in assay [2] (measured at 1 μM drug) and in assay [3] (measured at 1 μM drug) were 130 nM, 110 nM and 137000 nM, respectively.

For `O=C(/C=C/c1ccc(F)c(Br)c1)NC1(C(=O)NCCc2c[nH]c3ccc(F)cc23)CCCCC1` [Compound 12, (E)-1-(3-(3-bromo-4-fluorophenyl)acrylamido)-N-(2-(5-fluoro-1H-indol-3-yl)ethyl)cyclohexanecarboxamide], the Kd worked out at 120 nM in assay [1] (measured at 1 μM drug), 280 nM in assay [2] (measured at 1 μM drug) and 1800 nM in assay [3] (measured at 1 μM drug).

Regarding `O=C(/C=C/c1ccc(F)c(Br)c1)NC1(C(=O)NCCc2c[nH]c3ccc(F)cc23)CCCC1` [Compound 13, (E)-1-(3-(3-bromo-4-fluorophenyl)acrylamido)-N-(2-(5-fluoro-1H-indol-3-yl)ethyl)cyclopentanecarboxamide], the results for the Kd in assay [1] (measured at 1 μM drug), in assay [2] (measured at 1 μM drug) and in assay [3] (measured at 1 μM drug) were 140 nM, 390 nM and 1790 nM, respectively.

Consider `O=C(/C=C/c1ccc(F)c(Br)c1)NC1(C(=O)NCCc2c[nH]c3ccc(F)cc23)CC1` [Compound 14, (E)-1-(3-(3-bromo-4-fluorophenyl)acrylamido)-N-(2-(5-fluoro-1H-indol-3-yl)ethyl)cyclopropanecarboxamide], for which the values for the Kd in assay [1] (measured at 1 μM drug), in assay [2] (measured at 1 μM drug) and in assay [3] (measured at 1 μM drug) were 290 nM, 460 nM and 12000 nM, respectively.

Turning to `CC(C)(NC(=O)/C=C/c1ccc(F)c(Br)c1)C(=O)NCCc1c[nH]c2ccc(F)cc12` [Compound 15, (E)-3-(3-bromo-4-fluorophenyl)-N-(1-(2-(5-fluoro-1H-indol-3-yl)ethylamino)-2-methyl-1-oxopropan-2-yl)acrylamide], the Kd in assay [1] (measured at 1 μM drug) worked out at 360 nM; in assay [2] (measured at 1 μM drug), 480 nM.

As for `O=C(/C=C/c1ccc(F)c(Br)c1)N[C@H](C(=O)NCCc1c[nH]c2ccc(F)cc12)c1ccccc1` [Compound 17, (S,E)-3-(3-bromo-4-fluorophenyl)-N-(2-(2-(5-fluoro-1H-indol-3-yl)ethylamino)-2-oxo-1-phenylethyl)acrylamide], the Kd in assay [1] (measured at 1 μM drug) is 100 nM; in assay [2] (measured at 1 μM drug), 170 nM; in assay [3] (measured at 1 μM drug) it was 940 nM.

`O=C(/C=C/c1ccc(F)c(Br)c1)N[C@@H](C(=O)NCCc1c[nH]c2ccc(F)cc12)c1ccccc1` [Compound 18, (R,E)-3-(3-bromo-4-fluorophenyl)-N-(2-(2-(5-fluoro-1H-indol-3-yl)ethylamino)-2-oxo-1-phenylethyl)acrylamide]: the values for the Kd in assay [1] (measured at 200 nM drug), in assay [2] (measured at 200 nM drug) and in assay [3] (measured at 200 nM drug) were 70 nM, 380 nM and 690 nM, respectively.

As for `CN1CCC(NC(=O)/C=C/c2ccc(F)c(Br)c2)(C(=O)NCCc2c[nH]c3ccc(F)cc23)CC1` [Compound 22], the Kd was found to be 100 nM in assay [1] (measured at 1 μM drug), 330 nM in assay [2] (measured at 1 μM drug) and 490 nM in assay [3] (measured at 1 μM drug).

Regarding `COC(=O)N1CCC(NC(=O)/C=C/c2ccc(F)c(Br)c2)(C(=O)NCCc2c[nH]c3ccc(F)cc23)CC1` [Compound 23, (E)-methyl 4-(3-(3-bromo-4-fluorophenyl)acrylamido)-4-(2-(5-fluoro-1H-indol-3-yl)ethylcarbamoyl)piperidine-1-carboxylate], the Kd turned out to be 790 nM in assay [1] (measured at 1 μM drug) and 870 nM in assay [2] (measured at 1 μM drug).
